Laboratory results: patent US20200270309A1, “MALEIMIDE GROUP-MODIFIED ANGIOGENESIS INHIBITOR HM-1 AND USE THEREOF” (NANJING ANJI BIOLOGICAL TECHNOLOGY CO., LTD, priority 2017, published 2020)
Marks after values point to notes of the source that are not given here. Peptide text beside a SMILES is read from it. * marks the point of attachment. X72 = O=C1C=CC(=O)N1c1ccccc1CCCCCCCCCCC(=O)*

Experiments:
[1] = Half-lives and pharmacokinetic parameters of polypeptides vs HM-1; settings: in vivo
[2] = system: collagen-induced arthritis; test: Mouse collagen-induced arthritis (CIA) animal model; type: in vivo; settings: DBA/1 mice CIA model, dose 4.0 mg/kg, subcutaneous from day 30, n=10
[3] = system: human retinal capillary endothelial cells (HRCECs); test: MTT proliferation inhibition on HRCECs; type: cell-based; settings: 48 h; for A570 nm-A630 nm: mean±SD
Procedure, shortened: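 HRCECs seeded at 3.0×10^4 cells/mL, adhered overnight, then exposed to polypeptide for 48 h at 37 °C, 5% CO2. MTT added 4 h, formazan dissolved in DMSO, absorbance 570/630 nm; PIR (%) = 1 − treated/negative control, mean±SD of three independent runs.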

[4] = system: corneal neovascularization; test: Corneal neovascularization induced by alkali burn in BALB/c mice; type: in vivo; design: Inhibition rate (corneal neovascularization): concentration or dose not given beside the values; settings: day 14 after alkali burn, vitreous injection once a day for 1 week
[5] = system: xylene-induced ear swelling; test: Xylene-induced mouse ear swelling; type: in vivo; settings: Kunming mice, injected once a day for 5 days; for Swelling degree (mg): right minus left ear piece weight 2 h after xylene; for Inhibition rate (%): xylene-induced ear swelling
Procedure, shortened: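 Ear pieces punched and weighed 2 h after xylene (0.05 mL, right ear only; left ear as normal) gave swelling degree (right − left weight) and swelling rate (degree/left weight ×100%). Kunming mice received injections daily for 5 consecutive days, xylene applied 1 h after final dose.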

[6] = system: carrageenan-induced toe swelling; test: Carrageenan-induced toe swelling in rats; type: in vivo; settings: SD rats; for Swelling degree 1 h: 1 h after carrageenan; for Swelling degree 3 h: 3 h after carrageenan; for Swelling degree 5 h: 5 h after carrageenan; for Swelling degree 7 h: 7 h after carrageenan
Procedure, shortened: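 Paw swelling, in mL, is the post-inflammation minus pre-inflammation volume of the right hind foot, read as overflow liquid when immersed to a pen-marked joint. Treatment was daily injection over 3 d; model group received saline of the same volume.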

[7] = system: choroidal neovascularization; test: Choroidal neovascularization in rats (laser photocoagulation, FFA); type: in vivo; settings: BN rats
Procedure, shortened: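 Male BN rats aged 6-8 weeks were given 8 krypton-laser spots around the optic disc (647.1 nm, 350 mW, 50 μm, 0.05 s). Once the model was confirmed, groups of 5 got daily intravitreal compound at 0.05 μM or saline for 1 week. FFA followed at 3, 7, 14 and 28 days after dosing.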

[8] = system: HUVECs; test: Transwell migration inhibition on HUVECs; type: cell-based, human; settings: for Inhibition rate (%): HUVEC migration vs blank control; for Cell migration number (Mean ± SD): HUVECs, transwell, 24 h
[9] = day 3 after administration, total light spot number was 297, 0.05 μM in the vitreous chamber once a day for 1 week
[10] = day 7 after administration, total light spot number was 186, 0.05 μM in the vitreous chamber once a day for 1 week
[11] = day 14 after administration, total light spot number was 137, 0.05 μM in the vitreous chamber once a day for 1 week
[12] = day 28 after administration, total light spot number was 69, 0.05 μM in the vitreous chamber once a day for 1 week

- AUC(0-inf) [1]: 28200 ± 7980 ng·h/mL
- MRT inf [1]: 50.5 ± 13.6 h
- clearance [1]: 0.59 mL/min/kg
- half-life ([1]; T1/2β (half-life)): 35.03 ± 0.27 h
Structure (SMILES): C[C@H](NC(=O)CNC(=O)[C@H](CCCNC(=N)N)NC(=O)CCCCCCCCCCc1ccccc1N1C(=O)C=CC1=O)C(=O)N[C@@H](CC(=O)O)C(=O)N[C@@H](CCCNC(=N)N)C(=O)N[C@@H](C)C(=O)NCC(=O)NCC(=O)NCC(=O)NCC(=O)N[C@@H](CCCNC(=N)N)C(=O)NCC(=O)N[C@@H](CC(=O)O)C(=O)O [X22] (X72-RGADRAGGGGRGD-OH)
- Joint swelling degree (mm) [2]: 0.75 ± 0.14 mm
- Left and right paw swelling degree (mm) [2]: 0.83 ± 0.13 mm
- Clinical score ([2]; highest score 16): 8.67 ± 1.32
- Inhibition rate (%) ([3]; dose 0.05 μM): 49.30%*
- A570 nm-A630 nm ([3]; dose 0.05 μM): 0.6701 ± 0.07545
- Inhibition rate (%) ([3]; dose 0.1 μM): 64.15%**
- A570 nm-A630 nm ([3]; dose 0.1 μM): 0.4738 ± 0.00344
- Inhibition rate (%) ([3]; dose 0.2 μM): 66.52%*
- A570 nm-A630 nm ([3]; dose 0.2 μM): 0.4425 ± 0.04816
- Inhibition rate (corneal neovascularization) [4]: 46.70%
- MVD (corneal microvessel density) [4]: 35.84 ± 6.594
- Swelling degree (mg) ([5]; dose 2 mg/kg): 4.72 ± 0.29* mg
- Inhibition rate (%) ([5]; dose 2 mg/kg): 24.24%
- Swelling degree (mg) ([5]; dose 4 mg/kg): 3.67 ± 0.77** mg
- Inhibition rate (%) ([5]; dose 4 mg/kg): 41.09%
- Swelling degree (mg) ([5]; dose 8 mg/kg): 3.42 ± 0.21** mg
- Inhibition rate (%) ([5]; dose 8 mg/kg): 45.10%
- Swelling degree 1 h ([6]; 2.0 mg/kg once a day for 3 d): 0.24 ± 0.13 mg
- Swelling degree 3 h ([6]; 2.0 mg/kg once a day for 3 d): 0.31 ± 0.15 mg
- Swelling degree 5 h ([6]; 2.0 mg/kg once a day for 3 d): 0.42 ± 0.14 mg
- Swelling degree 7 h ([6]; 2.0 mg/kg once a day for 3 d): 0.38 ± 0.18 mg
- Swelling degree 1 h ([6]; 4.0 mg/kg once a day for 3 d): 0.23 ± 0.11 mg
- Swelling degree 3 h ([6]; 4.0 mg/kg once a day for 3 d): 0.31 ± 0.16 mg
- Swelling degree 5 h ([6]; 4.0 mg/kg once a day for 3 d): 0.36 ± 0.13 mg
- Swelling degree 7 h ([6]; 4.0 mg/kg once a day for 3 d): 0.37 ± 0.13 mg
- CNV Incidence (%) [7, 9]: 53.87%
- Leakage Light spot number [7, 9]: 160
- CNV Incidence (%) [7, 10]: 47.85%
- Leakage Light spot number [7, 10]: 89
- CNV Incidence (%) [7, 11]: 43.80%
- Leakage Light spot number [7, 11]: 60
- CNV Incidence (%) [7, 12]: 37.68%
- Leakage Light spot number [7, 12]: 26
- Inhibition rate (%) ([8]; dose 0.05 μM): 48.22%
- Inhibition rate (%) ([8]; dose 0.1 μM): 55.21%
- Inhibition rate (%) ([8]; dose 0.2 μM): 57.65%
- Cell migration number (Mean ± SD) ([8]; dose 0.05 μM): 555.03 ± 66.81
- Cell migration number (Mean ± SD) ([8]; dose 0.1 μM): 480.13 ± 67.49
- Cell migration number (Mean ± SD) ([8]; dose 0.2 μM): 453.97 ± 57.23
